Columns and labels:
[1] = target: JAK2 (Homo sapiens, UniProt O60674); test: JAK2 Inhibition Assay; assay type: biochemical; settings: JAK-2 enzyme, 15 μM poly(Glu)4Tyr, 12 μM ATP
Summary of the method: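 Radiometric kinase assay with 1 nM JAK2 in pH 7.4 HEPES buffer (10 mM MgCl2, 1 mM DTT, 0.01% BSA), final 15 μM poly(Glu)4Tyr and 12 μM [33P]-ATP. Run 20 min at 25 °C, stopped with TCA; 33P incorporation captured on glass-fibre filters and read by scintillation counting.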

[2] = target: T1, JAK3 (Homo sapiens, UniProt P52333); test: JAK3 Inhibition Assay; assay type: biochemical; settings: 1 nM JAK3, 1 μM poly(Glu)4Tyr, 5 μM ATP, 25° C.; read-out: enzyme inhibition data (Ki) JAK3
T1 sequence (P52333 1-1124): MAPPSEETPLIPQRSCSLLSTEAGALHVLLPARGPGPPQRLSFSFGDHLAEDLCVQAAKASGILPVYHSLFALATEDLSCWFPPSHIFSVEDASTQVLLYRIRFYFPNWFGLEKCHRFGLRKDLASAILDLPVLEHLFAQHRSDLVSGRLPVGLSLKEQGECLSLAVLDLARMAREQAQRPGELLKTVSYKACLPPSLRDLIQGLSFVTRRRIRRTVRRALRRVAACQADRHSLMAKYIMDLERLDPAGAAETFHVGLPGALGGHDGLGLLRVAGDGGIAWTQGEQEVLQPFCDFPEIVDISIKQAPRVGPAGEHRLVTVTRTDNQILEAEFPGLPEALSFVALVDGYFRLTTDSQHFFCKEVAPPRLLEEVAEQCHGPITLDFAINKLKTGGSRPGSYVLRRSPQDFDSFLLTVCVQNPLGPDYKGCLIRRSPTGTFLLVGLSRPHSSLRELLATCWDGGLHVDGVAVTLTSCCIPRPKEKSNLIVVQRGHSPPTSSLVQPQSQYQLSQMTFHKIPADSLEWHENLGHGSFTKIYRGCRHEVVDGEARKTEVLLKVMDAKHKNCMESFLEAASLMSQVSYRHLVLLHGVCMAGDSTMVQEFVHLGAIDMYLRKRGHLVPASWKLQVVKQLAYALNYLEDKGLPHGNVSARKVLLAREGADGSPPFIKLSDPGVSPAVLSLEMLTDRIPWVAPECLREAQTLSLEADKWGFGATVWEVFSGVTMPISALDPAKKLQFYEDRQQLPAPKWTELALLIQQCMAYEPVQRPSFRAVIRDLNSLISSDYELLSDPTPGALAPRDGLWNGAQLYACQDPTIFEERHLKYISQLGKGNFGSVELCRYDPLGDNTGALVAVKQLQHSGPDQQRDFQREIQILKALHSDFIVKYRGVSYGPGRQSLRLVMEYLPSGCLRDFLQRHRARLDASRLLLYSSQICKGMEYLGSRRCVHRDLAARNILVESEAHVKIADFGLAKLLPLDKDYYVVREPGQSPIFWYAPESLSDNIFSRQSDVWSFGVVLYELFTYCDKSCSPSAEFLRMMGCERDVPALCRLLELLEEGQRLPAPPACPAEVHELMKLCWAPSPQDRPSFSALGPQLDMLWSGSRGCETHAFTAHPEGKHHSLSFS
Summary of the method: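 Radiometric ^33P incorporation into poly(Glu)4Tyr (1 μM) by 1 nM human JAK3 at 5 μM ATP, in HEPES pH 7.4 buffer with MgCl2, DTT and BSA. Reaction ran 20 min at 25° C, stopped with TCA, then filtered before scintillation counting.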

JAK2, sequence (O60674 whole entry): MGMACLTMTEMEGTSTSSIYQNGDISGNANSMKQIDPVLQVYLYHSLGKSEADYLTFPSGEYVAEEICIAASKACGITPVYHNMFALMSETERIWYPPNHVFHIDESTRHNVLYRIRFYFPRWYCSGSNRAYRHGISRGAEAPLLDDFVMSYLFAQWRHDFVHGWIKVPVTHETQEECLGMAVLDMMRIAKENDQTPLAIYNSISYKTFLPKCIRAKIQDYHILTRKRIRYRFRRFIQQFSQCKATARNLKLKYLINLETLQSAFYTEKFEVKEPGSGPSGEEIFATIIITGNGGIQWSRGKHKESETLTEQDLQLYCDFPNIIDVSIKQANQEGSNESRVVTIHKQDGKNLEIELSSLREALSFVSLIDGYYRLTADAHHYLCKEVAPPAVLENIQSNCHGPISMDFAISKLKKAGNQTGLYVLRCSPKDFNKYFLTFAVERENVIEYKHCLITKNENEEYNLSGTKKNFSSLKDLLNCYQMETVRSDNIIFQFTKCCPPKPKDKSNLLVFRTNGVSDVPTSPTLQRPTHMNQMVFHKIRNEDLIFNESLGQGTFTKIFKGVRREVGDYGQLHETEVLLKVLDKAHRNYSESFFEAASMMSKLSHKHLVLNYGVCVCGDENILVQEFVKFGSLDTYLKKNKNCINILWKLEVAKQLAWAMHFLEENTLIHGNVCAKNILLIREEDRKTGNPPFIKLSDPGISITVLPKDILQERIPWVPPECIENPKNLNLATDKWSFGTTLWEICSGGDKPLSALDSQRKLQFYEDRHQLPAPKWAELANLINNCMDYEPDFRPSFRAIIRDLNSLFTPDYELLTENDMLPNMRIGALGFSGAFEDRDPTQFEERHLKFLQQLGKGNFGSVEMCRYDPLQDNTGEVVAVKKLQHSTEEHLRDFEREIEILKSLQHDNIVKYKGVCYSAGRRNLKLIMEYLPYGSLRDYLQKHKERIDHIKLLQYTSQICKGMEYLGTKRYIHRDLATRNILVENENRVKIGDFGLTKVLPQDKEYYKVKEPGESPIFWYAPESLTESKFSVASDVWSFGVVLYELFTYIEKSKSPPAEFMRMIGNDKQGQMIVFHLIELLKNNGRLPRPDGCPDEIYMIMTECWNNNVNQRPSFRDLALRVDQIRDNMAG

Ki [1]: < 500 nM | Ki [2]: < 500 nM
SMILES: CC[C@@H](C(=O)NCC(F)(F)F)n1cnc2cnc(-c3c[nH]c4ncncc34)nc21 [Compound 113]
